Measurements reported in US20210317143A9, “BORONIC ESTER PRODRUGS AND USES THEREOF” (Massachusetts Institute of Technology, priority 2019, published 2021).

What was measured:
[1] = system: KMS11 cells; assay: In vitro cell viability assay (Celltiter glo) in KMS11; type: cell-based; settings: Homo sapiens, KMS-11; KMS11, effect on cell proliferation after 48 h of incubation
Experimental: (§1) The effect on cell proliferation after 48 h of incubation with each agent was compared.
(§2) Both cell lines were cultured in RPMI media (ThermoFisher Scientific) supplemented with 10% FBS (VWR), 1% Penicillin/Streptomycin (ThermoFisher Scientific), and 1% glutamine (ThermoFisher Scientific). MM.1SLuc+/GFP+ cells were generated by retroviral transduction and authenticated by short tandem repeat DNA profiling. All cell lines were confirmed to be mycoplasma negative using the kit MycoAlert Mycoplasma (Lonza). Cell lines were housed in 5% CO2 and 37° C., incubators.
(§3) Cells were plated at 10,000 cells/well in a 96 well plate overnight and then treated for 48 hours with either bortezomib (Btz) or Btz-bottlebrush (BBP) at various concentrations. Cell viability assay was performed using the Celltiter glo reagent kit (Promega).
(§4) Toxicological studies were carried out including in vitro cell viability experiments and in vivo survivability studies (FIGS. 8A to 8B and FIG. 9A, respectively). The in vitro cell viability studies were carried out in both MM S model (for experimental details see Manier, S, et al., Science Translational Medicine 2017, 9, 389) and KMS11 flank cancer model. […] For the maximum tolerated dose (MTD) studies, animals (n=3-5) were dosed 4 times, with the exception that the 20 mg/kg group was dosed three times.

[2] = system: healthy BALB/c mice; assay: In vivo toxicity / maximum tolerated dose in healthy BALB/c mice; settings: twice a week
Experimental: (§5) Mice were euthanized if their body weight reached a 20% loss.
as §4

[3] = as above; settings: BALB/c, mouse, in vivo, subcutaneous
Experimental: as §5, §4

[4] = system: MM.1S cells; assay: In vitro cell viability assay (Celltiter glo) in MM.1S; type: cell-based; settings: Homo sapiens, MM1.S, effect on cell proliferation after 48 h of incubation
Experimental: as §1, §2, §3, §4

[5] = system: MM.1SLuc+/GFP+ cells; settings: 0.75 mg/kg (free Btz MTD; Btz-BBP dose-match)
Experimental: The tumors were induced via intravenous injection of MM.1SLuc+/GFP+ cells, and tumor progression was quantified by bioluminescence via the luciferase signal expressed by the MM.1S cells (FIGS. 12A to 12F). […] Mice (n=5) were treated for 30 days with the same treatment groups and dosing schedule described in the previous tumor model.
The orthotopic model of MM was obtained by injecting intravenously 1.5 million MM.1SLuc+/GFP+ cells in the tail vain of SCID/beige mice. Tumor dissemination was assessed by IVIS imaging (IVIS Spectrum. Perkin Elmer, bioluminescence imaging, BLI) once a week. […] Drug was injected twice a week for a period of 2 weeks (4 injections in total). Tumor burden response was obtained by IVIS imaging performed once a week. After 25 days, treatment was stopped. Endpoint criteria of the study was hind limb paralysis or loss of >20% of their initial body weight.

[6] = system: KMS11 subcutaneous tumor; assay: Efficacy study in subcutaneous model of MM (KMS11); type: in vivo, mice; settings: 0.75 mg/kg twice a week (Btz at MTD; Btz-BBP dose-match, intravenous)
Experimental: Treatments were administered over a period of 50 days, after which tumor were left to freely progress.
The subcutaneous model of MM was generated with an injection of 3 million KMS11 cells in the hind flank of NCR nude mice. […] Tumor growth was monitor by caliper measurements (tumor measurement. TM). Once the tumor reached 1 cm in diameter, mice were randomly attributed to a treatment group. […] Drug was injected twice a week for a period of 4 weeks (8 injections in total) after mice were enrolled in the study. Mice body weight were tracked till day 50 (body weight measurement, BWM). Animals were sacrificed once the tumor reached 2 cm in the longest axis.

In the case of `CC(C)C[C@H](NC(=O)[C@H](Cc1ccccc1)NC(=O)c1cnccn1)B(O)O` [Btz, bortezomib], the IC50 [1] is reported as 0.0299 ± 0.0016 µM, the “survival rates at higher doses” value ([2]; free Btz above 0.75 mg/kg (1, 1.25 mg/kg)) is reported as “rapid decrease of the survival rates” and the “well-tolerated / safe dose” value ([2]; healthy BALB/c mice) is reported as 0.75 mg/kg. The MTD at 4 weeks [3] was 0.75 mg/kg, the IC50 [4] was 0.0035 ± 0.0014 µM and the therapeutic improvement [5] was “diminished improvements”. For the same compound, the mean survival time [6] was 42 ± 6 days.
